Reference: patent US20240051968A1, “METHODS FOR TREATING SPINOCEREBELLAR ATAXIA TYPE 3” (PTC Therapeutics, Inc., priority 2021, published 2024)

Assays:
ATXN3 pre-mRNA = test: RT-qPCR Assay to Quantify Exon 4 Skipping in ATXN3 pre-mRNA in Cells; format: cell-based; conditions: cells incubated with compound 24 h, 7-point concentration curve, GAPDH control
Procedure, shortened: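 Cells (10,000/well) treated 24 h at 37° C with 7-point, 3.16-fold compound dilutions in duplicate against DMSO controls. Lysates analysed by one-step RT-qPCR (40 cycles) for ATXN3 exon 4 skipping; percent skipping per dose fitted to dose-response to interpolate IC50.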

[1] = test system: Total ATXN3 (tATXN3) protein; test: Endogenous Total ATXN3 (tATXN3) Protein Assay (MSD immunoassay of cell lysates); format: cell-based; conditions: cells incubated with compound 48 h; 7-point concentration curve; MSD detection in cell lysate
Procedure, shortened: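 Cells were plated at 10,000 per well on a 7-point, 3.16-fold compound dilution series in duplicate, with DMSO controls, and incubated 48 h at 37 °C. Lysates were run in an MSD sandwich immunoassay: mouse anti-ATXN3 capture, rabbit anti-ATXN3 secondary and SULFO-TAG anti-rabbit detection, read by electrochemiluminescence.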

SMILES	IC50 (ATXN3 pre-mRNA)	IC50 [1]	IC50, exon 4 skipping in ATXN3 pre-mRNA (ATXN3 pre-mRNA)	IC50 (average), total ATXN3 protein [1]
C[C@H](N)C(F)c1sc2c(NCc3cccs3)cc(Cl)nc2c1Br (stereo partly drawn) [Cpd 158, 2-[(2S)-2-amino-1-fluoropropyl]-3-bromo-5-chloro-N-[(thiophen-2-yl)methyl]thieno[3,2-b]pyridin-7-amine]	≤ 500 nM	≤ 500 nM		
C[C@H](N)C(O)c1sc2c(NCc3nccs3)cc(Cl)nc2c1Br (stereo partly drawn) [Cpd 159, (2S)-2-amino-1-(3-bromo-5-chloro-7-{[(1,3-thiazol-2-yl)methyl]amino}thieno[3,2-b]pyridin-2-yl)propan-1-ol]			inactive	inactive
C[C@H](N)C(F)c1sc2c(NCc3nccs3)cc(Cl)nc2c1Br (stereo partly drawn) [Cpd 161, 2-[(2S)-2-amino-1-fluoropropyl]-3-bromo-5-chloro-N-[(1,3-thiazol-2-yl)methyl]thieno[3,2-b]pyridin-7-amine]	≤ 500 nM	500 to 1000 nM		
Cc1c(NC[C@H](C)N)sc2c(NCc3cccs3)cc(Cl)nc12 [Cpd 163, N^2-[(2S)-2-aminopropyl]-5-chloro-3-methyl-N^7-[(thiophen-2-yl)methyl]thieno[3,2-b]pyridine-2,7-diamine]	500 to 1000 nM	1000 to 1500 nM		
Cc1c(NC[C@@H](C)N)sc2c(NCc3cccs3)cc(Cl)nc12 [Cpd 164, N^2-[(2R)-2-aminopropyl]-5-chloro-3-methyl-N^7-[(thiophen-2-yl)methyl]thieno[3,2-b]pyridine-2,7-diamine]	2000 to 3000 nM	> 2000 nM		
C[C@@H](O)[C@H](N)Cc1sc2c(NCc3ccco3)cc(Cl)nc2c1Br [Cpd 165, (2R,3R)-3-amino-4-(3-bromo-5-chloro-7-{[(furan-2-yl)methyl]amino}thieno[3,2-b]pyridin-2-yl)butan-2-ol]	≤ 500 nM	≤ 500 nM		
C#C[C@H](N)Cc1sc2c(NCc3ccco3)cc(Cl)nc2c1Cl [Cpd 166, 2-[(2R)-2-aminobut-3-yn-1-yl]-3,5-dichloro-N-[(furan-2-yl)methyl]thieno[3,2-b]pyridin-7-amine]	≤ 500 nM	≤ 500 nM		
C[S+]([O-])C[C@H](N)Cc1sc2c(NCc3ccco3)cc(Cl)nc2c1Cl (stereo partly drawn) [Cpd 167, [(2R)-2-amino-3-(3,5-dichloro-7-{[(furan-2-yl)methyl]amino}thieno[3,2-b]pyridin-2-yl)propyl](methyl)sulfaniumolate]	≤ 500 nM	≤ 500 nM		
